These results are taken from ChEMBL document CHEMBL1147637, “Synthesis and biological activity of selective azasugar-based TACE inhibitors” (Bioorg Med Chem Lett, 2004).

The Ki is a measure of affinity in units of concentration, obtained from inhibition or displacement.

One assay has as its target Stromelysin-1 (Homo sapiens, UniProt P08254). In words: Inhibition of recombinant human matrix metalloprotease-3.
A further assay deals with T1, Interstitial collagenase (Homo sapiens, UniProt P03956).
T1 sequence (P03956 whole entry): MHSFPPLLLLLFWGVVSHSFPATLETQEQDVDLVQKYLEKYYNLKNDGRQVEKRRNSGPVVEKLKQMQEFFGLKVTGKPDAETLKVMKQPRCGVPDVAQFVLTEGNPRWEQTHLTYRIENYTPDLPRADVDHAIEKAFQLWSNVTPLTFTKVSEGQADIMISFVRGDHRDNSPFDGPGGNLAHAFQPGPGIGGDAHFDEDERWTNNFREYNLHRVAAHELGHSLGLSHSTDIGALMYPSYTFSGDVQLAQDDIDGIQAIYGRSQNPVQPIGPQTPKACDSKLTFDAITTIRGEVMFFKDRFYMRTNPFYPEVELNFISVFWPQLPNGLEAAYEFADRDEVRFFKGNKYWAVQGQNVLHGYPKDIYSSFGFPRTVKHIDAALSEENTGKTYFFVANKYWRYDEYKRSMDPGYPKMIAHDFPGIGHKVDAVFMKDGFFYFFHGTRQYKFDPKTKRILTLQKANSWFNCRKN
Put plainly: Inhibition of recombinant human matrix metalloprotease-1.

The target of assay [1] is Disintegrin and metalloproteinase domain-containing protein 17 (Homo sapiens, UniProt P78536). Put plainly: Inhibition of recombinant human TNF-alpha converting enzyme.
Chain of Disintegrin and metalloproteinase domain-containing protein 17 (P78536 whole entry, the tested form may be a part): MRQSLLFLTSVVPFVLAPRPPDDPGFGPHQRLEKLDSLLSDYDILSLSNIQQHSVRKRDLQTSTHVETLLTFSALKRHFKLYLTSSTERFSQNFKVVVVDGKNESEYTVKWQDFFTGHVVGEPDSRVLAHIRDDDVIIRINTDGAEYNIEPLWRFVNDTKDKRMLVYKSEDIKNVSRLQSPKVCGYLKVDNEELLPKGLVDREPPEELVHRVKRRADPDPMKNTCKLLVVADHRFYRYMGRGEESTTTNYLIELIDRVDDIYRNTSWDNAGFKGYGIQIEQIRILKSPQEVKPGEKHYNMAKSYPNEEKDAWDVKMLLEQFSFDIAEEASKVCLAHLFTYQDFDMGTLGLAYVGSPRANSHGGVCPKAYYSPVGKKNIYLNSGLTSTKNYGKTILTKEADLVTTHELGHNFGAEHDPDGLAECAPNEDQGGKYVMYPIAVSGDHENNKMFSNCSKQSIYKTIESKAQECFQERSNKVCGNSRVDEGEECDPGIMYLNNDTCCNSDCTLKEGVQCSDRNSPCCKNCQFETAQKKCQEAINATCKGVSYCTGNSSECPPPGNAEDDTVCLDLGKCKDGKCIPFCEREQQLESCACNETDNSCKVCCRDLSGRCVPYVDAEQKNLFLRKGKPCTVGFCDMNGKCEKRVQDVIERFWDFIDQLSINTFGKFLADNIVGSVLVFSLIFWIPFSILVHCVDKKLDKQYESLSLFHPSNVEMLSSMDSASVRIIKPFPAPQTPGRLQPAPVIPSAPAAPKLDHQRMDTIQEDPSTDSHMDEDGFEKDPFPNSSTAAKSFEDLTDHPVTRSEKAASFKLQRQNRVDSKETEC
Assay [2] concerns the target Matrix metalloproteinase-9 (Homo sapiens, UniProt P14780). Put plainly: Inhibition of recombinant human matrix metalloprotease-9.

Chain of Matrix metalloproteinase-9 (P14780 whole entry): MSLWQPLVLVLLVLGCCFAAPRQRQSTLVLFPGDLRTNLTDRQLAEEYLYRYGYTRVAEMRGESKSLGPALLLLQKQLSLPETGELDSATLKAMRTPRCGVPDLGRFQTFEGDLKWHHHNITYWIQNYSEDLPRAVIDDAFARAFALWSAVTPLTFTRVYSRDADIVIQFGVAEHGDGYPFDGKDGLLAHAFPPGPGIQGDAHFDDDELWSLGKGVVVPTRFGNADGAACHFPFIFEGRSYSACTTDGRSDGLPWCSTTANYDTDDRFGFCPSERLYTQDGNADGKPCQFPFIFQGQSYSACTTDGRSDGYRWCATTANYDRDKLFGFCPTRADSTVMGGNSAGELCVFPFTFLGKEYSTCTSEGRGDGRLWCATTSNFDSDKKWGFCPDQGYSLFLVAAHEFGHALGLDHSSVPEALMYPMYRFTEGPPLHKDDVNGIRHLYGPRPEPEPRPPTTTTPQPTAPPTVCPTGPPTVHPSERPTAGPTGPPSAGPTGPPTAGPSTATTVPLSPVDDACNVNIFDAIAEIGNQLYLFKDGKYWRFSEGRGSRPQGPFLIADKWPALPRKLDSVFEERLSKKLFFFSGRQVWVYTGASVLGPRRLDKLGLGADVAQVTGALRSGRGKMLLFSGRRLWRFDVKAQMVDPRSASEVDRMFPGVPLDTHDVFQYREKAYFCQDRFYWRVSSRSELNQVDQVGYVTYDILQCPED
Chain of Stromelysin-1 (P08254 whole entry): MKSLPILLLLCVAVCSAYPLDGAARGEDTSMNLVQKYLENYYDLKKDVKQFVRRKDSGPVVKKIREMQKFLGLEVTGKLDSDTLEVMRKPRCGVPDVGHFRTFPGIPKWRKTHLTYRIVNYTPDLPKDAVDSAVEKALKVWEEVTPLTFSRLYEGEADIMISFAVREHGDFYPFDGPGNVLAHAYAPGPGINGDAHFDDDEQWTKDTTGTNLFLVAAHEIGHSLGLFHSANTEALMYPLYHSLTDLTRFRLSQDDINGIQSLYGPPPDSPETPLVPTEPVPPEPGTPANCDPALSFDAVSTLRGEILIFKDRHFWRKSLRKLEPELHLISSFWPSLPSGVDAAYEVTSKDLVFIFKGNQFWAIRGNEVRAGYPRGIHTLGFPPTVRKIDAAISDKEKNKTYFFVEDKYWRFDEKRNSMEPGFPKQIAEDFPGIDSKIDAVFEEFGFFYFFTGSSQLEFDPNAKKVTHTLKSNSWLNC

Regarding `CC#CCOc1ccc(S(=O)(=O)N2C[C@H]3OC(C)(C)O[C@H]3[C@H](OC)[C@@H]2C(=O)NO)cc1`, the inhibition constant Ki on Stromelysin-1 was 11.5 nM; on Interstitial collagenase, 552 nM; in assay [1] it was 0.84 nM; in assay [2], 98.2 nM.
For `CC#CCOc1ccc(S(=O)(=O)N2C[C@@H](O)[C@@H](O)[C@H](OC)[C@@H]2C(=O)NO)cc1`, in that order: 0.43 nM, 90 nM, 1.85 nM and 12 nM.
For `CC#CCOc1ccc(S(=O)(=O)N2C[C@@H](O)[C@H]3OC(C)(C)O[C@@H]3[C@@H]2C(=O)NO)cc1`, in that order: 58.1 nM, more than 850 nM, 1.85 nM and 118 nM.
In the case of `CC#CCOc1ccc(S(=O)(=O)N2C[C@@H](O)[C@@H](O)[C@H](O)[C@@H]2C(=O)NO)cc1`, the Ki at Stromelysin-1 came out at 3.3 nM; at Interstitial collagenase it was 128 nM; in assay [2], 14.2 nM.
For the compound `CC#CCOc1ccc(S(=O)(=O)N2C[C@H]3OC(C)(C)O[C@H]3[C@H](O)[C@@H]2C(=O)NO)cc1`, the inhibition constant Ki was 29.6 nM on Stromelysin-1, more than 850 nM at Interstitial collagenase, 0.57 nM in assay [1] and 77.8 nM in assay [2].
